The record followed here is patent US20210108199A1, “Treatment for aggressive cancers by targeting C9ORF72” (The Trustees of Columbia University in the City of New York, priority 2017, published 2021).

Common to all, as to type: cell-based
The test system of one series is γ-H2AX. As to the kind of experiment: γ-H2AX western blot and foci quantitation. Conditions: U87 cells. As for the experimental part:
Cells were treated with control and C9 siRNA for three days. Cells then were fixed and stained as described in the as described above with p-H2AX(S139, #25575) antibody. For a DNA damage positive control, 0.5 μM doxorubicin hydrochloride (Sigma™, D151510MG) was used for 24 hours before imaging. Cells were then imaged using LSM 700 Carl Zeiss™. To quantify p-H2AX foci we used a publicly available software FoCo™ as described previously.
To further confirm the presence of DNA damage upon C9 KD, the DNA damage marker γ-H2AX was used as a probe on C9 KD. […] Immunofluorescence was used to image and quantitate γ-H2AX foci in control, C9 KD and doxorubicin-treated U87 cells.
FIG. 25A is a WB showing γ-H2AX and ubiquitinated γ-H2AX, control (siCtrl) and C9 KD (siC9; SEQ ID NO:631), with loading of control actin. FIG. 25B is a set of IF images of U87 cells stained for γ-H2AX (green). FIG. 25C is a graph quantitating about 90 cells (from three biological replicates) for γ-H2AX foci per cell between control (siCtrl) C9 KD (siC9) and DOX-treated U87 cells. Statistical significance was assessed by an unpaired t-test: NS P>0.05, *P≤0.05, **P≤0.01, ***P≤0.001 ****P≤0.0001.
A general note: A western blot detects proteins with antibodies after separation by electrophoresis.

For series [1], the system named is U87 cells. Nature of the series: β-Galactosidase staining (senescence). As for the experimental part: β-Galactosidase staining was performed using a Senescence™ β-Galactosidase Staining Kit (Cell Signaling™, #9860) and used according to manufacturer's instructions.
To confirm that cells undergo non-apoptotic death, apoptosis was blocked with a broad caspase inhibitor Z-VAD-FMK upon C9 KD. […] Additionally, the apoptosis inducer, staurosporine (STS), was used to asses Z-VAD-FMK efficacy. […] A beta galactosidase staining technique was used to asses senescence upon C9 KD. […] See FIG. 20, for which U87 cells were treated with control (siCtrl) and C9 (siC9; SEQ ID NO:631) siRNA and then subjected to β-Galactosidase Staining.

The test system of series [2] is U87 cells. As to the kind of experiment: ROS detection by dihydroethidium. Conditions: day three. As for the experimental part:
ROS detection in U87 cells was performed using 2′,7′-dichlorofluorescin diacetate (Sigma™, D883). Cells were treated with control and siC9 siRNA. After 3 days, cells were washed with phenol red-free DMEM (ThermoFisher™, 21063029). Cells then were incubated with 20 μM DCFDA for 40 minutes at 37° C. Cells then were washed with phenol red-free DMEM. Then signal was read at Ex/Em: 485/535 nm using Synergy H1 Hybrid™ Multi-Mode Microplate reader by Biotek™. Quantitation was done after removal of background. Additionally, dihydroethidium (EMD Millipore™ 309800) was used. U87 cells were treated as described above. At day 3, cells were incubated with DHE for 30 minutes at 37° C. […]
For the above reasons, whether C9 KD may lead to increase ROS production was investigated. […] C9 was knocked down in U87 cells with two independent siRNAs and the ROS levels were measured after KD. […]
For the data presented in FIG. 21, U87 cells were treated with control (siCtrl) and C9 (siC9; SEQ ID NO:631) siRNA and on day three ROS levels measured by DCFDA and dihydroethidium. FIG. 21A presents data for fluorescent intensity between control (siCtrl) and C9 KD (siC9) cells as measured by DCFDA. […] FIG. 21C presents fluorescent intensity quantitation for about 30 cells from the dihydroethidium experiments (n=3). Statistical significance was assessed by an unpaired t-test: NS P>0.05, *P≤0.05, **P≤0.01, ***P≤0.001 ****P≤0.0001. […]

The next series deals with caspase-3, PARP1. As to the kind of experiment: Western blot of caspase-3 and PARP1 cleavage. Conditions: U87 cells. How it is done:
For Western blot analysis, cells were lysed with lysis buffer (20 mM sodium phosphate (pH 7.0), 250 mM NaCl, 30 mM sodium pyrophosphate, 0.1% Nonidet™ P-40, 5 mM EDTA, 10 mM NaF, 0.1 mM Na3VO4, and 1 mM PMSF) supplemented with complete protease inhibitors (Roche™) and homogenized by passage through a 28 gauge needle. Protein concentration was measured with a Bio-Rad™ protein assay dye reagent and results were read using a spectrophotometer (BiophotometerPlus™ by Eppendorf™). Protein extracts were resolved by SDS PAGE on gradient (Thermo Fisher™) or 12% gels. Proteins were then electrotransferred at 350 mA for 80 minutes onto a PVDF membrane (Immobilon-P PVDF). Membranes were blocked with PBST with 5% milk and 1% BSA for 30 minutes. Quantitation of blots was performed Image Studio Lite software (LI-COR Biosciences™).
To check known markers of apoptosis, including caspase-3 cleavage and PARP1 cleavage, U87 cells were treated with doxorubicin as a positive control for apoptotic markers. […] FIG. 17 is a set of WB visualizing the levels of cleaved and un-cleaved caspace-3, and cleaved and un-cleaved PARP1 in cells treated with control (siCtrl) and C9 (siC9; SEQ ID NO:631) siRNA, and U87 cells treated.

Series [3] concerns U87 cells. Nature of the series: Mitochondrial imaging (MitoTracker) and MiNA quantitation. How it is done:
Mitchondria imaging in U87 cell was performed with MitoTracker™ Red CMXRos (ThermoFisher™, M7512) according to the manufacturer's protocol. Cells then were imaged as described herein.
Quantitation was performed using a publicly available macro MiNA for ImageJ™ as described.
The vacuoles were studied to investigate whether they are swollen mitochondria, because several reports observed vacuolated mitochondria in ALS patients and mice models that resemble the phenotype seen here. A fluorescent mitochondrial dye was used to visualize mitochondria upon C9 KD. […] See FIG. 5A and FIG. 5B, which show an IF image of U87 cells treated as in Example 1 and stained with MitoTracker (red) and nuclei stained with DAPI (blue).
To obtain the data seen in FIG. 6, the stained mitochondria from FIG. 5 were IF stained and analyzed using MiNA software for ImageJ™.

Regarding “siC9: siRNA targeting C9 mRNA: UUAAUGAAACAAUAAUCACUC (SEQ ID NO:631; sense) and GUGAUUAUUGUUUCAUUAAUC (SEQ ID NO:632; antisense) (listed as RNA, chemistry not given here)”, in the series with γ-H2AX, the “γ-H2AX levels (western blot)” value is recorded as “increased γ-H2AX levels”. For the same substance, the “γ-H2AX foci per cell” value in the series on γ-H2AX (immunofluorescence) is “significant increase in γ-H2AX foci”. Further, in the series on U87 cells [1], the “nucleus and cell size” value was “increase in both nucleus and cell size”; the “β-galactosidase staining (senescence)” value is on record as “did not stain with the assay”. The “ROS (dihydroethidium)” value with U87 cells [2] is listed as “significant upregulation of ROS”. Besides, in the series on caspase-3, PARP1, the PARP1 cleavage entry is recorded as “not observed”, the PARP1 protein result was “no PARP1 protein observed” and the “caspase 3 cleavage” value was “did not lead to caspase 3 cleavage”. In addition, the “total amount of individual and networked mitochondria staining” value in the series with U87 cells [3] (MiNA) is recorded as “increased”. Besides, the “mitochondrial dye staining of vacuoles” value in the series with U87 cells [3] (MitoTracker) was “did not stain red”. Moreover, in the series with U87 cells [3] (vs control), the mitochondrial network organization result is recorded as “significant mitochondrial network disorganization”.
